Test [1] deals with Pseudomonas aeruginosa. The test can be described thus: Antibiofilm activity against Pseudomonas aeruginosa PAO1 assessed as inhibition of biofilm formation at 50 uM incubated for 24 hrs by crystal violet staining based absorbance assay relative to control. Also on record: scale not given: the % may be the effect or the level left. In kind it is functional.
Test [2] concerns the target T1, Transcriptional regulator MvfR (Pseudomonas aeruginosa PA14, UniProt A0A072ZLE6).
T1 sequence (A0A072ZLE6 whole entry): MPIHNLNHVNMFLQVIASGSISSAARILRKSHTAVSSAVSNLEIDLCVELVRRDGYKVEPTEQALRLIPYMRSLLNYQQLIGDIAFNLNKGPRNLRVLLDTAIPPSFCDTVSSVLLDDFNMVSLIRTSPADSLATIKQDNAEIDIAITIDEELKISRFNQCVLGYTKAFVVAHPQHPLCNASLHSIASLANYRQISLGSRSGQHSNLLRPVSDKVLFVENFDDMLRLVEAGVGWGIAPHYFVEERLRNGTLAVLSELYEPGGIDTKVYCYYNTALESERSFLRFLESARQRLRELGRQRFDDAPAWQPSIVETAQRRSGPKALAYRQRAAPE
Kind of test: Inhibition of PqsR-mediated quorum sensing system in Pseudomonas aeruginosa PAO1 assessed as inhibition of pyocyanin production at 20 uM incubated for 24 hrs by absorbance based assay.

The nature of test [3]: Inhibition of quorum sensing system in Pseudomonas aeruginosa PAO1 transfected with lasB-GFP by measuring reduction in fluorescence intensity measured for 16 hrs by fluorescence assay.
Test [4] in a line: Inhibition of quorum sensing system in Pseudomonas aeruginosa PAO1.
A short description of test [5]: Inhibition of quorum sensing system in Vibrio fischeri. The arrangement: species or system Aliivibrio fischeri.
In test [6] the target is T2, Transcriptional activator protein TraR (Agrobacterium tumefaciens, UniProt P33905).
T2 sequence (P33905 whole entry): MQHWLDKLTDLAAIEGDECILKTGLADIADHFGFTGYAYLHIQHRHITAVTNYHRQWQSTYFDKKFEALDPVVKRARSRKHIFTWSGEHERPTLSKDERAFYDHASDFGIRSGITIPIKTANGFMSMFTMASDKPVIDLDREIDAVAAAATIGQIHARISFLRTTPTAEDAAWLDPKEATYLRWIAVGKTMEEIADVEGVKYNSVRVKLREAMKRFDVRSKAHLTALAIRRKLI
Kind of test: Antagonist activity at Agrobacterium tumefaciens TraR receptor.

Test [7] addresses T1, Transcriptional regulator MvfR. The test can be described thus: Inhibition of PqsR-mediated quorum sensing system in Pseudomonas aeruginosa PAO1 assessed as inhibition of pyocyanin production incubated for 24 hrs by absorbance based assay.
Test [8] has as its target T3, Transcriptional activator protein LasR (Pseudomonas aeruginosa (strain ATCC 15692 / PAO1 / 1C / PRS 101 / LMG12228), UniProt P25084).
T3 sequence (P25084 whole entry): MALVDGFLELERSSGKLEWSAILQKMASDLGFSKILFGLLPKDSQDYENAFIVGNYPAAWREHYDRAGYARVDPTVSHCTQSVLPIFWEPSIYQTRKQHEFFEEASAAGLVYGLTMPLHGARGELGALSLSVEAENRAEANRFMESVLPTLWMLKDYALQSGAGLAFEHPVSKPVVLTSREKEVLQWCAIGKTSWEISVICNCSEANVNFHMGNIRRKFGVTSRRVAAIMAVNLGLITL
The test can be described thus: Inhibition of LasR-mediated quorum sensing system in Pseudomonas aeruginosa PAO1 assessed as inhibition of pyocyanin production incubated for 24 hrs by absorbance based assay.

Test [9] concerns the target T1, Transcriptional regulator MvfR. The test can be described thus: Antagonist activity at PqsR in wild-type Pseudomonas aeruginosa PAO1-L assessed as reduction in HHQ level at 0.1 uM by LCMS/MS analysis.
Test [10] can be described thus: Inhibition of quorum sensing system in Chromobacterium violaceum CV026 assessed as reduction in violacein production.
The target in test [11] is T1, Transcriptional regulator MvfR. Kind of test: Antagonist activity at PqsR in wild-type Pseudomonas aeruginosa PAO1 assessed as reduction in AQ level.
Test [12] has the same target. Kind of test: Antagonist activity at PqsR in Pseudomonas aeruginosa IPCD48 clinical isolate assessed as reduction in PQS level at 0.1 uM by LCMS/MS analysis.
Test [13] concerns the target T4, Transcriptional regulator MvfR (Pseudomonas aeruginosa PA14) (UniProt A0A072ZLE6).
T4 sequence (whole entry): T1 sequence (A0A072ZLE6 whole entry)
Kind of test: Inhibition of PqsR-mediated quorum sensing system in Pseudomonas aeruginosa PAO1 assessed as inhibition of pyocyanin production at 100 uM relative to control.

In test [14] the target is T3, Transcriptional activator protein LasR. The test can be described thus: Inhibition of LasR-mediated quorum sensing system in Pseudomonas aeruginosa PAO1 assessed as inhibition of elastase production.

For `O=C(Nc1cc(=O)c2ccccc2o1)c1ccc(F)cc1`, the Activity in [1] is on record as 65.3%. Turning to `CCCCCCc1cncn1C1CCOC1=O` (stereo not drawn), in test [2], the IC50 came to 110 µM. In turn, `O=C(NCc1cccc(I)c1)c1ccccc1[N+](=O)[O-]` returned a 50% inhibitory concentration (IC50) in test [3] of 6.5 µM. As to `CCCCCCCCCS(=O)(=O)N[C@H]1CCOC1=O`, the IC50 in test [4] worked out at 1 µM. `CCCCCS(=O)(=O)NC1CCOC1=O` (stereo not drawn): the IC50 in test [5] was determined as 2 µM. Compound `CCCCCCS(=O)(=O)N[C@H]1CCOC1=O` yielded a 50% inhibitory concentration (IC50) in test [6] of 0.8 µM. For the compound `CCCCCNC(=O)NC1CCOC1=O` (stereo not drawn), the 50% inhibitory concentration (IC50) in [7] worked out at 1.1 µM. For the compound `CCCCS(=O)(=O)N[C@H]1CCOC1=O`, inhibition in [6] was half-maximal at 0.6 µM (IC50).

Consider `CO[C@H]1O[C@H](CNS(=O)(=O)c2c(C)cc(C)cc2C)[C@@H](O)[C@H](O)[C@@H]1O`, for which the IC50 in test [8] amounted to 4 µM. For the compound `O=C(Nc1cc(=O)c2ccccc2o1)c1ccc([N+](=O)[O-])cc1[N+](=O)[O-]`, the Activity in test [1] amounted to 90%.

With `CCCCSC(=O)N[C@H]1CCOC1=O`, in test [9], the IC50 amounted to 45 µM.

As for `O=C(Nc1ccc(S(=O)(=O)N[C@H]2CCOC2=O)cc1)c1ccccc1F`, the IC50 in [10] is 1.6 µM.

Consider `O=C(N[C@H]1CCOC1=O)OCc1ccc([N+](=O)[O-])cc1`, for which, in test [9], the IC50 turned out to be 22 µM.

`CCCCCCCCCCCCn1nnc(CC(=O)O)n1`: in test [11], the IC50 amounted to 0.03 µM. As to `FC(F)(F)c1cc(NCc2cn(-c3ccc(Oc4ccccc4)cc3)nn2)ccn1`, the IC50 in test [2] amounted to 0.011 µM.

Take `O=C(CN1CCOCC1)Oc1cccc([N+](=O)[O-])c1`: the IC50 in test [12] amounted to 22 µM. On to `CCCCCCNC(=O)NC1CCOC1=O` (stereo not drawn), for which the IC50 in test [7] came out at 1 µM.

For `COc1ccc(NC(=O)Cn2cc(CSc3nc4ccccc4c(=O)n3C3CC3)nn2)cc1`, the inhibition in [13] is 74%. On to `Cc1cc(C)c(S(=O)(=O)NC[C@H]2O[C@@H](C)[C@@H](O)[C@@H](O)[C@@H]2O)c(C)c1`, for which the 50% inhibitory concentration (IC50) in [8] is 3 µM.

In the case of `O=C(N[C@H]1CCOC1=O)SCc1ccc([N+](=O)[O-])cc1`, the IC50 in [9] was 23 µM. Turning to `O=C(Nc1ccc(F)cc1)c1cc(=O)c2ccccc2o1`, the Activity in test [1] turned out to be 73.3%. On to `Fc1ccc(-n2cc(CNc3ccnc(C(F)(F)F)c3)nn2)cc1`, for which the IC50 in [2] was 0.196 µM.

On to `Nc1cc(NCC(=O)Nc2ccc(F)cc2)cc(C(F)(F)F)n1`, for which, in [2], the IC50 was 0.48 µM. As to `CCCCCCc1cncn1CC(=O)OCC`, the half-inhibitory concentration (IC50) in [2] was 87 µM. Consider `O=C(Nc1ccc(S(=O)(=O)N[C@H]2CCOC2=O)cc1)c1sccc1Cl`, for which the IC50 in test [10] was found to be 6.2 µM. For the compound `O=[N+]([O-])c1ccccc1S(=O)(=O)Nc1ccc(S(=O)(=O)Nc2nccs2)cc1`, in test [14], the IC50 came out at 60 µM. As to `O=C(Nc1ccc([N+](=O)[O-])cc1)c1cc(=O)c2ccccc2o1`, the Activity in test [1] was 58.7%. With `CCCCNC(=O)CSc1nc2ccccc2c(=O)n1C1CC1`, in test [13], the inhibition stood at 62%.

On to `CCCCCCCCCCS(=O)(=O)N[C@H]1CCOC1=O`, for which the IC50 in test [4] was found to be 1.1 µM.

Take `O=C1OCCC1NS(=O)(=O)CCc1ccccc1` (stereo not drawn): in test [5], the IC50 is 3 µM.

Take `CCOC(=O)CC(=O)c1ccccc1`: the IC50 in test [12] is 76 µM. For `C[C@@H]1O[C@H](CNC(=O)/C=C/c2ccccc2)[C@@H](O)[C@H](O)[C@@H]1O`, in [8], the IC50 was determined as 88 µM.

Consider `O=C(CN1CCOCC1)Nc1cccc([N+](=O)[O-])c1`, for which the IC50 in [12] was greater than 483 µM. For `O=C(NCc1cc(F)cc(F)c1)c1ccccc1[N+](=O)[O-]`, the IC50 in test [3] worked out at 6.6 µM. On to `O=C(Oc1c(Br)cc(Br)cc1CNC(=O)c1ccccc1[N+](=O)[O-])c1ccccc1Cl`, for which the concentration for half-maximal inhibition (IC50) in test [11] stood at 0.038 µM. As for `CCCCCCOC(=O)N[C@H]1CCOC1=O`, the IC50 in test [9] turned out to be 73 µM. On to `O=C(NCCc1ccc(Br)cc1)c1ccccc1[N+](=O)[O-]`, for which half-maximal inhibition in test [3] (IC50) required 4.8 µM. Consider `CCOC(=O)CC(=O)c1ccc(F)cc1`, for which, in test [12], the IC50 amounted to 23 µM.

The term IC50 denotes the concentration that gives 50% inhibition. In general, inhibition refers to the percentage by which the read-out fell short of the control.
